Measured values taken from US7741327B2 (Hoffmann-La Roche Inc., priority 2008, dated 2010).

target: T1, Recombinant human liver GK1 (GST-GK) (Homo sapiens, UniProt P35557); assay: In vitro glucokinase activity (G6PDH-coupled NADH assay); type: biochemical; conditions: 30° C., 5 mM D-glucose, 10% DMSO
T1 construct: made in house; host or cells: E. coli
T1 sequence (P35557 1-466 isoform P35557-2): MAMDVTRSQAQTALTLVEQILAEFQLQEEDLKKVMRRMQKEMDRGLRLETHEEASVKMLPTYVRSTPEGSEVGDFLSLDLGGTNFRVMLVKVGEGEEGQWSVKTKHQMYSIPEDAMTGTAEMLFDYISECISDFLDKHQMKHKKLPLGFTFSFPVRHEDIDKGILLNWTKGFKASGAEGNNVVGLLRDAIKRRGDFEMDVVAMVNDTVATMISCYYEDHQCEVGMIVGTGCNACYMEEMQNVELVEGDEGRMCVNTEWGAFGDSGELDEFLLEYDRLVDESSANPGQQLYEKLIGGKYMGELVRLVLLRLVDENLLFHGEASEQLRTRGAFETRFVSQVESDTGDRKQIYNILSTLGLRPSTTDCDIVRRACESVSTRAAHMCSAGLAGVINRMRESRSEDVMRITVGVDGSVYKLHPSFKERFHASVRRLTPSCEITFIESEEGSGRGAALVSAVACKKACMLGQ
Procedure, shortened: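 Activation measured as the rate of OD340 rise from G6PDH-coupled NADH production, relative to 10% DMSO control, reported as SC1.5 (concentration for 50% activity increase). Conditions: 30° C, pH 7.1 Hepes, 5 mM glucose, 1 mM ATP, purified recombinant GST-human GK1, compound preincubated 10 min before enzyme addition.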

SMILES | SC1.5 (concentration of activator that produced a 50% increase in the activity of GK) [µM]
O=C(Nc1ccn(C[C@@H](O)CO)n1)C(CCC(F)(F)F)N1CC(Oc2ccccc2Cl)=CC1=O (stereo partly drawn) [Example 220, 2-[4-(2-Chloro-phenoxy)-2-oxo-2,5-dihydro-pyrrol-1-yl]-5,5,5-trifluoro-pentanoic acid [1-((R)-2,3-dihydroxy-propyl)-1H-pyrazol-3-yl]-amide] | 1.8
CC[C@@H](C)CC(C(=O)Nc1ccn(C[C@@H](O)CO)n1)N1CC(Oc2ccccc2Cl)=CC1=O (stereo partly drawn) [Example 253, (R)-2-[4-(2-Chloro-phenoxy)-2-oxo-2,5-dihydro-pyrrol-1-yl]-4-methyl-hexanoic acid [1-((R)-2,3-dihydroxy-propyl)-1H-pyrazol-3-yl]-amide] | 0.113
O=C(Nc1ccn(C[C@@H](O)CO)n1)C(CC1CCC1)N1CC(Oc2ccccc2Cl)=CC1=O (stereo partly drawn) [Example 169, 2-[4-(2-chloro-phenoxy)-2-oxo-2,5-dihydro-pyrrol-1-yl]-3-cyclobutyl-N-[1-((R)-2,3-dihydroxy-propyl)-1H-pyrazol-3-yl]-propionamide] | 0.086
CC(C)C[C@@H](C(=O)Nc1ccn(CC(C)(C)O)n1)N1CC(Oc2cccc3ocnc23)=CC1=O [Example 242, (S)-2-[4-(Benzooxazol-4-yloxy)-2-oxo-2,5-dihydro-pyrrol-1-yl]-4-methyl-pentanoic acid [1-(2-hydroxy-2-methyl-propyl)-1H-pyrazol-3-yl]-amide] | 3.036
CCOc1ccccc1OC1=CC(=O)N([C@@H](CC(C)C)C(=O)Nc2ccn(C)n2)C1.Cl [Example 82, (S)-2-[4-(2-Ethoxy-phenoxy)-2-oxo-2,5-dihydro-pyrrol-1-yl]-4-methyl-pentanoic acid (1-methyl-1H-pyrazol-3-yl)-amide Hydrochloride] | 2.591
Cc1nc2c(OC3=CC(=O)N([C@@H](CC(C)C)C(=O)Nc4ccn(CC(C)(C)O)n4)C3)cccc2o1 [Example 243, (S)-4-Methyl-2-[4-(2-methyl-benzooxazol-4-yloxy)-2-oxo-2,5-dihydro-pyrrol-1-yl]-pentanoic acid [1-(2-hydroxy-2-methyl-propyl)-1H-pyrazol-3-yl]-amide] | 7.56
COc1cccc(OC2=CC(=O)N([C@H](CC3CCOCC3)C(=O)Nc3ccn(CC(C)(C)O)n3)C2)c1Cl [Example 52, (R)-2-[4-(2-Chloro-3-methoxy-phenoxy)-2-oxo-2,5-dihydro-pyrrol-1-yl]-N-[1-(2-hydroxy-2-methyl-propyl)-1H-pyrazol-3-yl]-3-(tetrahydro-pyran-4-yl)-propionamide] | 1.027
CC(C)C[C@@H](C(=O)Nc1ccn(C[C@@H](O)CO)n1)N1CC(Oc2cccc(N3CCCC3)c2F)=CC1=O [Example 142, (S)-2-[4-(2-Fluoro-3-pyrrolidin-1-yl-phenoxy)-2-oxo-2,5-dihydro-pyrrol-1-yl]-4-methyl-pentanoic acid [1-((R)-2,3-dihydroxy-propyl)-1H-pyrazol-3-yl]-amide] | 0.234
CC(C)C[C@@H](C(=O)Nc1ccn(C[C@@H](O)C[C@@H](O)CC(=O)O)n1)N1CC(Oc2ccccc2Cl)=CC1=O [Example 194, (3R,5S)-6-(3-{(S)-2-[4-(2-chloro-phenoxy)-2-oxo-2,5-dihydro-pyrrol-1-yl]-4-methylpentanoylamino}-pyrazol-1-yl)-3,5-dihydroxy-hexanoic acid] | 0.695
CC(C)C[C@@H](C(=O)Nc1ccn(C[C@@H](O)CO)n1)N1CC(Oc2ccc(F)cc2F)=CC1=O [Example 102, (S)-2-[4-(2,4-Difluoro-phenoxy)-2-oxo-2,5-dihydro-pyrrol-1-yl]-4-methyl-pentanoic acid [1-((R)-2,3-dihydroxy-propyl)-1H-pyrazol-3-yl]-amide] | 0.578
O=C(Nc1ccn(C[C@@H](O)CO)n1)C(CC1CCOCC1)N1CC(Oc2c(F)cccc2F)=CC1=O (stereo partly drawn) [Example 44, 2-[4-(2,6-Difluoro-phenoxy)-2-oxo-2,5-dihydro-pyrrol-1-yl]-N-[1-((R)-2,3-dihydroxy-propyl)-1H-pyrazol-3-yl]-3-(tetrahydro-pyran-4-yl)-propionamide] | 0.165
Cc1ccc(F)c(OC2=CC(=O)N([C@@H](CC(C)C)C(=O)Nc3ccn(C[C@@H](O)CO)n3)C2)c1 [Example 103, (S)-2-[4-(2-Fluoro-5-methyl-phenoxy)-2-oxo-2,5-dihydro-pyrrol-1-yl]-4-methyl-pentanoic acid [1-((R)-2,3-dihydroxy-propyl)-1H-pyrazol-3-yl]-amide] | 0.072
C=Cc1cccc(OC2=CC(=O)N([C@@H](CC(C)C)C(=O)Nc3ccn(C[C@@H]4COC(C)(C)O4)n3)C2)c1F [Example 144, (S)-2-[4-(2-Fluoro-3-vinyl-phenoxy)-2-oxo-2,5-dihydro-pyrrol-1-yl]-4-methyl-pentanoic acid [1-((R)-2,2-dimethyl-[1,3]dioxolan-4-yl-methyl)-1H-pyrazol-3-yl]-amide] | 0.251
COC1=CC(=O)N([C@@H](CC2CCCC2)C(=O)Nc2ncc(F)s2)C1 [Example 8, (S)-3-Cyclopentyl-N-(5-fluoro-thiazol-2-yl)-2-(4-methoxy-2-oxo-2,5-dihydro-pyrrol-1-yl)-propionamide] | 1.365
CC(C)(O)Cn1ccc(NC(=O)[C@H](CC2CCCCC2)N2CC(OCC3COc4ccccc4O3)=CC2=O)n1 (stereo partly drawn) [Example 60, (S)-3-Cyclohexyl-2-[4-(2,3-dihydro-benzo[1,4]dioxin-2-ylmethoxy)-2-oxo-2,5-dihydro-pyrrol-1-yl]-N-[1-(2-hydroxy-2-methyl-propyl)-1-H-pyrazol-3-yl]-propionamide] | 0.99
O=C(Nc1ccn(C[C@@H](O)CO)n1)[C@H](CCO)N1CC(Oc2ccccc2Cl)=CC1=O [Example 222, (S)-2-[4-(2-Chloro-phenoxy)-2-oxo-2,5-dihydro-pyrrol-1-yl]-N-[1-((R)-2,3-dihydroxy-propyl)-1H-pyrazol-3-yl]-4-hydroxy-butyramide] | 15.278
Cl.O=C(Nc1ccn(C[C@@H](O)CO)n1)[C@H](CC1CCCCC1)N1CC(Oc2c(F)ccc(Cl)c2F)=CC1=O [Example 76, (S)-2-[4-(3-Chloro-2,6-difluoro-phenoxy)-2-oxo-2,5-dihydro-pyrrol-1-yl]-3-cyclohexyl-N-[1-((R)-2,3-dihydroxy-propyl)-1H-pyrazol-3-yl]-propionamide Hydrochloride] | 0.017
CC(C)C[C@@H](C(=O)Nc1ccn(CC(C)(C)O)n1)N1CC(Oc2c(F)ccc(OC(C)C)c2F)=CC1=O [Example 135, (S)-2-[4-(2,6-Difluoro-3-isopropoxy-phenoxy)-2-oxo-2,5-dihydro-pyrrol-1-yl]-4-methyl-pentanoic acid [1-(2-hydroxy-2-methyl-propyl)-1H-pyrazol-3-yl]-amide] | 0.066
CC(C)(O)Cn1ccc(NC(=O)[C@H](CC2CCCC2)N2CC(OCc3ccccc3)=CC2=O)n1 [Example 14, (S)-2-(4-Benzyloxy-2-oxo-2,5-dihydro-pyrrol-1-yl)-3-cyclopentyl-N-[1-(2-hydroxy-2-methyl-propyl)-1H-pyrazol-3-yl]-propionamide] | 0.368
CCOc1ccc(F)c(OC2=CC(=O)N([C@@H](CC(C)C)C(=O)Nc3ccn(C[C@@H]4COC(C)(C)O4)n3)C2)c1F [Example 116, (S)-2-[4-(3-Ethoxy-2,6-difluoro-phenoxy)-2-oxo-2,5-dihydro-pyrrol-1-yl]-4-methyl-pentanoic acid [1-((R)-2,2-dimethyl-[1,3]dioxolan-4-yl-methyl)-1H-pyrazol-3-yl]-amide] | 0.22
CC(C)NC1=CC(=O)N([C@@H](CC2CCCC2)C(=O)Nc2ccn(CC(C)(C)O)n2)C1 [Example 234, (S)-3-cyclopentyl-N-[1-(2-hydroxy-2-methyl-propyl)-1H-pyrazol-3-yl]-2-(4-isopropylamino-2-oxo-2,5-dihydro-pyrrol-1-yl)-propionamide] | 4.624
CC(C)C[C@@H](C(=O)Nc1ccn(C)n1)N1CC(Oc2cccc(O)c2F)=CC1=O [Example 127, (S)-2-[4-(2-Fluoro-3-hydroxy-phenoxy)-2-oxo-2,5-dihydro-pyrrol-1-yl]-4-methyl-pentanoic acid (1-methyl-1H-pyrazol-3-yl)-amide] | 0.414
COC(=O)c1ccc(NC(=O)[C@H](CC2CCOCC2)N2CC(Oc3c(F)cccc3F)=CC2=O)nc1 [Example 41, (S)-6-[2-[4-(2,6-difluoro-phenoxy)-2-oxo-2,5-dihydro-pyrrol-1-yl]-3-(tetrahydro-pyran-4-yl)-propionylamino]-nicotinic acid methyl ester] | 0.071
